According to paper PMC3317778, “Development of a Unique Small Molecule Modulator of CXCR4” (PLoS ONE, 2012):

Experiments:
[1] = target: T1, CXC chemokine receptor-4 (CXCR4) (Homo sapiens, UniProt P61073); test: competition with biotinylated TN14003 on MDA-MB-231 cells (immunofluorescence); supported by CXCL12-induced cAMP modulation assay in CXCR4-expressing cells (IC50 is for CXCR4/CXCL12 actions); assay type: cell-based
[2] = target: T1, CXC chemokine receptor-4 (CXCR4)

T1 sequence (P61073 whole entry): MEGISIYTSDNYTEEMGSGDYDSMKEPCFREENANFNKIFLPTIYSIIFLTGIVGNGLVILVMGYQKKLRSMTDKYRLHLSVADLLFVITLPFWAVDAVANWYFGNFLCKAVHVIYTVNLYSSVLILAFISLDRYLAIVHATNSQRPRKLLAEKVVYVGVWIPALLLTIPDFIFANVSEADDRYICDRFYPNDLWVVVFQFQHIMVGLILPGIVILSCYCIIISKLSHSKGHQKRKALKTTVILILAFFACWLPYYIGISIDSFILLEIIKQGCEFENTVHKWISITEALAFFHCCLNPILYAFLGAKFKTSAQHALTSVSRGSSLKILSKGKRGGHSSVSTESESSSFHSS

Row | IC50 [1] [nM] | reference antagonist; block of CXCL12-induced cAMP reduction in U87CD4CXCR4 cell [2] [nM] | Structure (SMILES)
1 | ~10 |  | c1cnc(NCc2ccc(CNc3ncccn3)cc2)nc1 [MSX-122, N,N′-(1,4-phenylenebis(methylene))dipyrimidin-2-amine]
2 |  | 1000 | c1cc(CN2CCCNCCNCCCNCC2)ccc1CN1CCCNCCNCCCNCC1 [AMD3100]
